Measured values: patent US20040014738A1 (priority 2000, published 2004)

Legend:
[1] = tested on: stem cells from umbilical cord blood
Experimental: Stem cells were isolated from fresh umbilical cord blood using hydroxy ethylstarch (HES) sedimentation (Perutelli P. et al, Vox Sang. 76(4) pp 237-40 (1999); Adorno G. et al, Clin. Lab. Haematol. 20(6) pp 341-3 (1998)). The resulting solution contained 20*10^6 cells/ml, as determined using an automatic cell counter (Sysmex K1000, TOA Medical Electronics, Kobe, Japan).
Stock solutions of Pseudomonas aeruginosa were added to the stem cell solution such that the volume of the spike was <10% of the total volume of the solution, and the number of bacteria was about 10^5/ml. A sensitizer, monophenyl-tri(N-methyl-4-pyridyl)porphyrin chloride (TriP(4), Mid-Century, Posen, Ill. USA), was added to a final concentration of 25 μM. The suspension were thoroughly mixed and divided into 3-ml aliquots in polystyrene culture dishes with a diameter of 6 cm (Greiner, Alphen a/d Rijn, the Netherlands), and agitated at room temperature on a horizontal reciprocal shaker (60 cycles/min, GFL, Burgwedel, Germany) for 5 min. in the dark. […] The irradiance at the cell layer was 35 mW/cm^2, as measured with an IL1400A photometer equipped with a SEL033 detector (International Light, Newburyport, Mass. USA). The following parameters were measured:
Influence of the treatment on stem cell differentiation (as measured by cfu-e, bfu-e, cfu-m, cfu-gm, and cfu-gem). […]

Pseudomonas aeruginosa = test: Photodynamic inactivation of Pseudomonas aeruginosa in stem cell-containing solution; format: cell-based; conditions: 25 μM sensitizer, light >600 nm, 35 mW/cm^2, about 10^5 bacteria/ml in stem cell solution (FIG. 1)
Experimental: Photodynamic Treatment of Stem Cell-Containing Solution Contaminated with Pseudomonas
(§1) The following parameters were measured:
Inactivation of P. aeruginosa; and […]

[2] = tested on: CD34-positive cells (stem cells); test: Viability of the stem cells after photodynamic treatment; format: cell-based; conditions: 25 μM sensitizer, illumination 1 hour, vs control (no illumination, no sensitizer) (FIG. 2)
Experimental: as §1
Viability of the stem cells.

C[n+]1ccc(-c2c3nc(c(-c4cc[n+](C)cc4)c4ccc([nH]4)c(-c4cc[n+](C)cc4)c4nc(c(-c5ccccc5)c5ccc2[nH]5)C=C4)C=C3)cc1.[Cl-].[Cl-].[Cl-] [TriP(4), monophenyl-tri(N-methyl-4-pyridyl)porphyrin chloride]
CFU-Mk, PDT (60′) [1]: 38
Inactivation of P. aeruginosa (Pseudomonas aeruginosa): effectively killed
viability of CD34-positive cells (stem cells) [2]: remains within the error margin for the control experiment
